Measured values taken from PubChem BioAssay (NCI).
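Dose response: 5 concentrations. Exposure: 48 h. Format: 96-well plates. Endpoint: linear interpolation; highest concentration if not reached. Abbreviation: GI50, concentration required for 50% inhibition of growth. Definition used: TGI = concentration required for complete inhibition of growth.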

Tests used:
Assay in all cases: inhibition of tumour cell growth, NCI panel, 48 h
[1] = system: BT-549 breast
[2] = system: TK-10 renal
[3] = system: NCI-H522 lung
[4] = system: U251 CNS
[5] = system: SK-OV-3 ovarian
[6] = system: UO-31 renal
[7] = system: K-562 leukemia
[8] = system: MOLT-4 leukemia
[9] = system: UACC-62 melanoma
[10] = system: HOP-62 NSCLC
[11] = system: SN12C renal
[12] = system: HL-60(TB) leukemia
[13] = system: SF-268 CNS
[14] = system: HCT-15 colon
[15] = system: HS 578T breast
[16] = system: LOX IMVI melanoma
[17] = system: RPMI-8226 leukemia
[18] = system: 786-0 renal
[19] = system: SR leukemia
[20] = system: OVCAR-5 ovarian
[21] = system: MCF7 breast
[22] = system: KM12 colon
[23] = system: MDA-MB-435
[24] = system: OVCAR-8 ovarian
[25] = system: CAKI-1 renal
[26] = system: SK-MEL-2 melanoma
[27] = system: HCT-116 colon
[28] = system: OVCAR-4 ovarian
[29] = system: HOP-92 NSCLC
[30] = system: PC-3 prostate
[31] = system: SK-MEL-5 melanoma
[32] = system: SK-MEL-28 melanoma
[33] = system: SNB-75 CNS
[34] = system: OVCAR-3 ovarian
[35] = system: NCI-H226 lung
[36] = system: SF-295 CNS
[37] = system: A498 renal
[38] = system: CCRF-CEM leukemia
[39] = system: M14 melanoma
[40] = system: DU-145 prostate
[41] = system: RXF 393 renal
[42] = system: COLO 205 colon
[43] = system: T-47D breast
[44] = system: EKVX NSCLC
[45] = system: A549 NSCLC
[46] = system: IGROV1 ovarian
[47] = system: MALME-3M melanoma
[48] = system: NCI-H23 lung
[49] = system: NCI/ADR-RES ovarian
[50] = system: SNB-19 CNS
[51] = system: ACHN renal
[52] = system: SF-539 CNS
[53] = system: MDA-MB-231 breast
[54] = system: HCC-2998 colon
[55] = system: NCI-H460 lung
[56] = system: UACC-257 melanoma
[57] = system: HT29 colon
[58] = system: SW-620 colon

COc1cccc(/C=N/Nc2ncnc3c2cnn3-c2cccc(OC)c2)c1
GI50 [1]: > 25 µM | TGI [1]: > 25 µM | GI50 [2]: > 25 µM | TGI [2]: > 25 µM | GI50 [3]: > 25 µM | TGI [3]: > 25 µM | GI50 [4]: > 25 µM | TGI [4]: > 25 µM | GI50 [5]: > 25 µM | TGI [5]: > 25 µM | GI50 [6]: > 25 µM | TGI [6]: > 25 µM | GI50 [7]: > 25 µM | TGI [7]: > 25 µM | GI50 [8]: > 25 µM | TGI [8]: > 25 µM | GI50 [9]: > 25 µM | TGI [9]: > 25 µM | GI50 [10]: > 25 µM | TGI [10]: > 25 µM | GI50 [11]: > 25 µM | TGI [11]: > 25 µM | GI50 [12]: > 25 µM | TGI [12]: > 25 µM | GI50 [13]: > 25 µM | TGI [13]: > 25 µM | GI50 [14]: > 25 µM | TGI [14]: > 25 µM | GI50 [15]: > 10.6 µM | TGI [15]: > 25 µM | GI50 [16]: > 25 µM | TGI [16]: > 25 µM | GI50 [17]: > 25 µM | TGI [17]: > 25 µM | GI50 [18]: > 25 µM | TGI [18]: > 25 µM | GI50 [19]: > 25 µM | TGI [19]: > 25 µM | GI50 [20]: > 25 µM | TGI [20]: > 25 µM | GI50 [21]: > 25 µM | TGI [21]: > 25 µM | GI50 [22]: > 25 µM | TGI [22]: > 25 µM | GI50 [23]: > 25 µM | TGI [23]: > 25 µM | GI50 [24]: > 25 µM | TGI [24]: > 25 µM | GI50 [25]: > 25 µM | TGI [25]: > 25 µM | GI50 [26]: > 25 µM | TGI [26]: > 25 µM | GI50 [27]: > 25 µM | TGI [27]: > 25 µM | GI50 [28]: > 25 µM | TGI [28]: > 25 µM | GI50 [29]: > 25 µM | TGI [29]: > 25 µM | GI50 [30]: > 25 µM | TGI [30]: > 25 µM | GI50 [31]: > 25 µM | TGI [31]: > 25 µM | GI50 [32]: > 25 µM | TGI [32]: > 25 µM | GI50 [33]: > 25 µM | TGI [33]: > 25 µM | GI50 [34]: > 25 µM | TGI [34]: > 25 µM | GI50 [35]: > 25 µM | TGI [35]: > 25 µM | GI50 [36]: > 25 µM | TGI [36]: > 25 µM | GI50 [37]: > 25 µM | TGI [37]: > 25 µM | GI50 [38]: > 25 µM | TGI [38]: > 25 µM | GI50 [39]: > 25 µM | TGI [39]: > 25 µM | GI50 [40]: > 25 µM | TGI [40]: > 25 µM | GI50 [41]: > 25 µM | TGI [41]: > 25 µM | GI50 [42]: > 25 µM | TGI [42]: > 25 µM | GI50 [43]: > 25 µM | TGI [43]: > 25 µM | GI50 [44]: > 25 µM | TGI [44]: > 25 µM | GI50 [45]: > 25 µM | TGI [45]: > 25 µM | GI50 [46]: > 25 µM | TGI [46]: > 25 µM | GI50 [47]: > 25 µM | TGI [47]: > 25 µM | GI50 [48]: > 25 µM | TGI [48]: > 25 µM | GI50 [49]: > 25 µM | TGI [49]: > 25 µM | GI50 [50]: > 25 µM | TGI [50]: > 25 µM | GI50 [51]: > 25 µM | TGI [51]: > 25 µM | GI50 [52]: > 25 µM | TGI [52]: > 25 µM | GI50 [53]: > 25 µM | TGI [53]: > 25 µM | GI50 [54]: > 25 µM | TGI [54]: > 25 µM | GI50 [55]: > 25 µM | TGI [55]: > 25 µM | GI50 [56]: > 25 µM | TGI [56]: > 25 µM | GI50 [57]: > 25 µM | TGI [57]: > 25 µM | GI50 [58]: > 25 µM | TGI [58]: > 25 µM
